The source of these data is patent publication US20180289655A1, “Methods and Compositions for the Intravenous Administration of Fumarates for the Treatment of Neurological Diseases” (Biogen MA Inc., priority 2015, published 2018).

Usually solubility stands for the dissolved amount per volume that the medium holds. A low value points to little dissolved substance.

For data set [1], the system named is Nrf2 target genes. Briefly: qRT-PCR of Nrf2 target genes, statements over all tested genes. It is filed as in vivo, C57BL/6 mice. As to the method:
For RNA preparation, frozen tissues were placed in 2 mL RNAse-free 96-well blocks with 1.5 mL QIAzol Lysis Reagent (QIAgen) and a 3.2 mm stainless steel bead (BioSpec Products, Bartlesville, Okla.). Tissues were disrupted for four cycles of 45 seconds in a Mini-Beadbeater (Biospec Products). RNA was extracted with chloroform and the aqueous phase was mixed with an equal volume of 70% ethanol. Extracted RNA was applied to RNeasy 96 plates and purified by the spin method according to the manufacturer's protocol (RNeasy 96 Universal Tissue Protocol, QIAgen, Hilden Germany).
Samples were reverse-transcribed into cDNA according to the manufacturer protocols using the High Capacity cDNA Reverse Transcription Kit (Life Technologies, Carlsbad, Calif.) and analyzed by qRT-PCR. Mouse target gene primers and 6-FAM™ dye-labeled TaqMan® MGB™ probes (Life Technologies) were used. Reactions containing 100 ng of cDNA, 900 nM of each primer, and 250 nM TaqMan probes were cycled on a QuantStudio 12 k-flex system (Life Technologies) once for 10 minutes at 95° C., followed by 40 cycles of 95° C. for 10 seconds and 60° C. for 1 minute. All samples were measured in triplicate with Gapdh as a normalizing gene. Taqman primer/probe sets from Life Technologies included: Akr1b8 (Mm00484314_m1); Gapdh (Mm03302249_g1); Gclc (Mm00802655_m1); Hmox1 (Mm00516005_m1); Nqo1 (Mm01253561_m1); and Osgin1 (Mm00660947_m1). Comparative CT method was used to calculate fold changes and samples were normalized relative to time-matched vehicle control.
(§1) At the 10-minute time point, 4 animals from each group were sacrificed, with plasma and tissues (brain, jejunum and kidney) collected to determine MMF exposure. Two hours after dosing, the remaining 4 animals were sacrificed, and plasma and tissues were collected. Tissue samples from the 2-hour time point were divided, with half of each sample used for MMF exposure analysis, and half for RNA extraction and qRT-PCR to evaluate the expression of Nrf2 target genes.
(§2) Ten minutes after dosing, 4 animals from each group were sacrificed, and plasma and tissues (brain, kidney, jejunum and spleen) were collected to quantify MMF exposure levels, as well as whole blood to perform CBC. Two hours post-dose, another 4 animals from each group were sacrificed, and plasma, whole blood, and tissues were collected. Tissue samples from the 2-hour time point were split, with half of each sample used for MMF exposure analysis, and half for RNA extraction/qRT-PCR to evaluate the expression of Nrf2 target genes. Six hours after dosing, the last 4 animals from each group were sacrificed, and whole blood and tissues were collected.
A CBC with differential panel was performed at 10 minutes post-last dose via facial vein bleeding, and at 2 hours after the last dose, pharmacodynamic Nrf2 transcriptional responses were analyzed in tissues from the same animals. Histopathology was also performed on regions of the tail in a pilot toxicology study.

Data set [2] is described as follows: 24-hour equilibrium solubility of DMF in water. Particulars: thermodynamic from solid. The data set is classed as physicochemical. As to the method: Samples were then filtrated at the measuring temperatures through a 0.2 μm filter unit, and the concentrations of the filtrate were determined using HPLC. The solids in equilibrium were confirmed, by FT-Raman technique, to be the same form as the starting material.

Data set [3] in a line: MMF exposure in plasma and tissues after DMF PO/IV or MMF IV (LC-MS/MS). It is filed as in vivo, C57BL/6 mice. As to the method: Aliquots (25 μL) of either plasma or tissue homogenate samples were extracted by protein precipitation with acetonitrile containing 4C13-MMF as the internal standard. For tissue samples, aliquots of homogenization solution (plasma with 12.5 mg/mL of NaF) were added to the tissue samples. The tissue samples were homogenized at 6.5 m/s for 60 seconds on a Fast Prep Tissue Homogenizer prior to protein precipitation. Concentrations of MMF in plasma, brain, jejunum and kidney samples were determined using qualified LC-MS/MS assays in the respective matrices. Data collections and integrations were accomplished using an API 5500 triple quadrupole mass spectrometer with a turbo ion spray interface (AB Sciex, Foster City, Calif.), and Analyst software (version 1.6.1). The peak area ratios of MMF relative to its internal standard were used to construct a standard curve using a quadratic regression with a 1/x^2 weighting. The lower limits of quantitation (LLOQ) were 1 ng/mL for the three tissue assays and 10 ng/mL for the plasma assay, respectively. The performances of the assays were monitored by the precision and accuracy of the standards and quality control samples.
MMF exposure levels were evaluated 10 minutes and 2 hours after dosing, while pharmacodynamic transcriptional responses were analyzed at 2 hours post-dose.
as §1
MMF exposure levels were evaluated 10 minutes and 2 hours after dosing, while transcriptional pharmacodynamic responses were analyzed at 2 and 6 hours post-dose. A complete blood count (CBC) with differential panel was performed at 10 minutes, 2 hours, and 6 hours post-dose.
as §2

[4] abbreviates: Study 3, DMF IV 30 mg/kg once daily x5, 2 hours after dosing.

Counter-ions that a name gives are not always drawn.

Consider `COC(=O)/C=C/C(=O)OC` [DMF, dimethyl fumarate], for which the “Changes in gene expression, jejunum” value in data set [1] (Study 1, DMF IV 17.5 mg/kg, 2 hours) is “No significant changes in gene expression”. The “Changes in transcript levels, kidney” value in data set [1] (Study 2, DMF IV 30 mg/kg, 2 hours) is listed as “No significant changes”. Besides, the “Genes significantly increased, brain” value in data set [1] (setting [4]) is “significant increase was observed in brain Hmox1, Osgin1, and Gclc levels”. In addition, the “Genes significantly increased, kidney and jejunum” value in data set [1] (setting [4]) is “Significant increases were also observed in Akr1b8, Nqo1, and Osgin1 levels”. Besides, the “Other transcripts in tissues analyzed” value in data set [1] (Study 3, DMF IV 30 mg/kg once daily x5, 2 hours post-last dose) is on record as “generally unaffected”. The solubility at 24 h in data set [2] (20 ° C., 24 hours) was 2700 µg/mL; in data set [2] (35 ° C., 24 hours), 3500 µg/mL; in data set [2] (50 ° C., 24 hours), 5500 µg/mL; in data set [2] (ambient temperature), 2700 µg/mL. The “MMF level in plasma” value in data set [3] (Study 1, IV DMF, 2 hours) is on record as “no detectable MMF in plasma”. The “MMF level in any tissue” value in data set [3] (Study 1, PO or IV DMF, 2 hours) is recorded as “no detectable MMF in any tissue”. For the same compound, the “MMF level in plasma or any tissues” value in data set [3] (Study 2, 2 hours, DMF 30 mg/kg or MMF 27.08 mg/kg IV) was “no detectable MMF in plasma or in any tissues”. Moreover, the “MMF levels in kidney, jejunum and spleen, DMF versus MMF” value in data set [3] (Study 2, IV, 10 minutes) was “no significant differences were noted in MMF levels”.
